From ChEMBL document CHEMBL3132769, “Fragment growing to retain or alter the selectivity of anchored kinase hinge-binding fragments” (Medchemcomm, 2014)

Key:
[1] = target: Serine/threonine-protein kinase PAK 2 (Homo sapiens) (UniProt Q13177); experiment: Inhibition of human truncated PAK2 expressed in Escherichia coli cell assessed as substrate phosphorylation using fluorescence-labelled peptides as substrate at 0.2 uM after 90 mins by microfluidic peptide phosphorylation assay
[2] = target: Tyrosine-protein kinase Fyn (Homo sapiens) (UniProt P06241); experiment: Inhibition of human full length FYN expressed in baculovirus assessed as substrate phosphorylation using fluorescence-labelled peptides as substrate at 0.2 uM after 90 mins by microfluidic peptide phosphorylation assay
[3] = target: Proto-oncogene tyrosine-protein kinase Src (Homo sapiens) (UniProt P12931); experiment: Inhibition of human full length SRC expressed in baculovirus assessed as substrate phosphorylation using fluorescence-labelled peptides as substrate at 420 uM after 90 mins by microfluidic peptide phosphorylation assay
[4] = target: Mitogen-activated protein kinase 3 (Homo sapiens) (UniProt P27361); experiment: Inhibition of human full length ERK1 expressed in Escherichia coli cell assessed as substrate phosphorylation using fluorescence-labelled peptides as substrate at 420 uM after 90 mins by microfluidic peptide phosphorylation assay
[5] = target: Tyrosine-protein kinase Fyn (Homo sapiens) (UniProt P06241); experiment: Inhibition of human full length FYN expressed in baculovirus assessed as substrate phosphorylation using fluorescence-labelled peptides as substrate at 9 uM after 90 mins by microfluidic peptide phosphorylation assay
[6] = target: T1, Serine/threonine-protein kinase D3 (Homo sapiens) (UniProt O94806); experiment: Inhibition of human full length PKD3 expressed in baculovirus assessed as substrate phosphorylation using fluorescence-labelled peptides as substrate at 9 uM after 90 mins by microfluidic peptide phosphorylation assay
T1 sequence (whole entry): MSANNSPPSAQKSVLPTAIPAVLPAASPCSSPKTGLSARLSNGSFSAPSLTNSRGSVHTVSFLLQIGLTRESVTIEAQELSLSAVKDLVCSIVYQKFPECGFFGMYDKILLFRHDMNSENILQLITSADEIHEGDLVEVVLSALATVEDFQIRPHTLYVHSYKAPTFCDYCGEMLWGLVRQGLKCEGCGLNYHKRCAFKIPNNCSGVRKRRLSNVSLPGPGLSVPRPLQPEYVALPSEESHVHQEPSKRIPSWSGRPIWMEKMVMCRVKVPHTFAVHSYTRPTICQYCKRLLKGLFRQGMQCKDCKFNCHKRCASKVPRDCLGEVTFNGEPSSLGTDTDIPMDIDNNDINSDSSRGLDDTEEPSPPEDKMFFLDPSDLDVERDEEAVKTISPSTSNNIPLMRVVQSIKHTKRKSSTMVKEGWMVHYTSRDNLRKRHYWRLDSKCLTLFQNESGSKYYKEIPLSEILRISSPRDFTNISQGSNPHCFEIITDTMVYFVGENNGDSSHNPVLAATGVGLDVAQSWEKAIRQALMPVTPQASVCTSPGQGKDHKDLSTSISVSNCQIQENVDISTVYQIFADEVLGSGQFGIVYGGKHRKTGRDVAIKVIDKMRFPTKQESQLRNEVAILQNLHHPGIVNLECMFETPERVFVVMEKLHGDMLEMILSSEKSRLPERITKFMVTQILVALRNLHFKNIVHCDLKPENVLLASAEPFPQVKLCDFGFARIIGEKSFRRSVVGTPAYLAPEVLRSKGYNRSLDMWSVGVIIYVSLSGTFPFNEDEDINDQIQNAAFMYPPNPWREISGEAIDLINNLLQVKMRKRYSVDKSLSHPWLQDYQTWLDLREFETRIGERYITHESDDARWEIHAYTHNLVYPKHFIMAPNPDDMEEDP

[7] = target: T2, Calcium/calmodulin-dependent protein kinase type IV (Homo sapiens) (UniProt Q16566); experiment: Inhibition of human full length CAMK4 expressed in baculovirus assessed as substrate phosphorylation using fluorescence-labelled peptides as substrate at 0.1 uM after 90 mins by microfluidic peptide phosphorylation assay
T2 sequence (whole entry): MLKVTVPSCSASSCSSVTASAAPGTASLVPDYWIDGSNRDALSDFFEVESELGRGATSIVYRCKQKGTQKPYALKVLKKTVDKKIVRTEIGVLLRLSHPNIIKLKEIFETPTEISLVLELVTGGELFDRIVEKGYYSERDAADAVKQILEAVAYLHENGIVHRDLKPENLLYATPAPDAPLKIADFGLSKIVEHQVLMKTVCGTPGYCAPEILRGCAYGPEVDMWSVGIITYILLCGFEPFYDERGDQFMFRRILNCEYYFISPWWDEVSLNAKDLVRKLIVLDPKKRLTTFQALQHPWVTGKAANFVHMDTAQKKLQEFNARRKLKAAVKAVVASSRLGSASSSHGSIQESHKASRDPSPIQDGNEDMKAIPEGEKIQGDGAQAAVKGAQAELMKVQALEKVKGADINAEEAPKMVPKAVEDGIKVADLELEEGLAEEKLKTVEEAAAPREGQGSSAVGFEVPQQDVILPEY

[8] = target: T3, Aurora kinase A (Homo sapiens) (UniProt O14965); settings: 0.1 uM
T3 sequence (whole entry): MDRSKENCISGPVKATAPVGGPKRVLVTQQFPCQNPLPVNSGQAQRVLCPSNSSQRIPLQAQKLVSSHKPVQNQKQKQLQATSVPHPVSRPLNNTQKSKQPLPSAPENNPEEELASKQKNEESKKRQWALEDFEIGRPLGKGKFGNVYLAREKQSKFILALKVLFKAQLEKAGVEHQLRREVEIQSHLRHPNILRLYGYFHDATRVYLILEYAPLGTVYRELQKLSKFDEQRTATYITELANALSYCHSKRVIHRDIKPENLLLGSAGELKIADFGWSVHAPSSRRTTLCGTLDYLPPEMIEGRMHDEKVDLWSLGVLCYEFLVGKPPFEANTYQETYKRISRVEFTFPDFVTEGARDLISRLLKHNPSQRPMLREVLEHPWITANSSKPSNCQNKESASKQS
Description: Inhibition of human full length AurA expressed in baculovirus assessed as substrate phosphorylation using fluorescence-labelled peptides as substrate at 0.1 uM after 90 mins by microfluidic peptide phosphorylation assay

[9] = target: T4, Testis-specific serine/threonine-protein kinase 1 (Homo sapiens) (UniProt Q9BXA7); experiment: Inhibition of human full length TSSK1 expressed in baculovirus assessed as substrate phosphorylation using fluorescence-labelled peptides as substrate at 70 uM after 90 mins by microfluidic peptide phosphorylation assay
T4 sequence (whole entry): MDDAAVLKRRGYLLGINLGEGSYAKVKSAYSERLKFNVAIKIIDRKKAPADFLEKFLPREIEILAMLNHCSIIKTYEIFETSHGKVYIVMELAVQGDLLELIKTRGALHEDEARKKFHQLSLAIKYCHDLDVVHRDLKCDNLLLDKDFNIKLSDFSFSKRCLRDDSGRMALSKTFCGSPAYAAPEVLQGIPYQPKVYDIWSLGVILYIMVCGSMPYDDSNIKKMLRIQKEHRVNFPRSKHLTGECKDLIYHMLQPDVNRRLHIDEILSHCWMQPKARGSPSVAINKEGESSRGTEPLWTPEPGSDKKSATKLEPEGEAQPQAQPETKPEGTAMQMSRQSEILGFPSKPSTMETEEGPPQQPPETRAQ

[10] = target: Serine/threonine-protein kinase Chk2 (Homo sapiens) (UniProt O96017); experiment: Inhibition of human full length CHK2 expressed in baculovirus assessed as substrate phosphorylation using fluorescence-labelled peptides as substrate at 1000 uM after 90 mins by microfluidic peptide phosphorylation assay
Serine/threonine-protein kinase Chk2 (Homo sapiens), sequence (O96017 whole entry): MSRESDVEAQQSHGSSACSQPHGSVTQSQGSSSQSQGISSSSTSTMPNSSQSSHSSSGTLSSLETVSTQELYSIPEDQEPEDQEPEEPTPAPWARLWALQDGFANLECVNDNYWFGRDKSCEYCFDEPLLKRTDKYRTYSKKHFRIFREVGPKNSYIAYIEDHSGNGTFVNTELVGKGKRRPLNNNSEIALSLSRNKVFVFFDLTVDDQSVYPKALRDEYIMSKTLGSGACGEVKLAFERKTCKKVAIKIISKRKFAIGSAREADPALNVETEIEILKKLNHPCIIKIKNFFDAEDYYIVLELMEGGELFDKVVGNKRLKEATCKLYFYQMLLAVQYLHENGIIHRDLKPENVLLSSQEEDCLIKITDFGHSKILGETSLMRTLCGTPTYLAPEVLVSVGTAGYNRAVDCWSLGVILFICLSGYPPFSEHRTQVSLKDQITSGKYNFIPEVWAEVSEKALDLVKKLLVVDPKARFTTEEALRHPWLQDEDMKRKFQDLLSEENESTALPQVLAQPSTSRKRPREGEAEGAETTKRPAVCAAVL

Tyrosine-protein kinase Fyn (Homo sapiens), sequence (P06241 2-537 limits assumed): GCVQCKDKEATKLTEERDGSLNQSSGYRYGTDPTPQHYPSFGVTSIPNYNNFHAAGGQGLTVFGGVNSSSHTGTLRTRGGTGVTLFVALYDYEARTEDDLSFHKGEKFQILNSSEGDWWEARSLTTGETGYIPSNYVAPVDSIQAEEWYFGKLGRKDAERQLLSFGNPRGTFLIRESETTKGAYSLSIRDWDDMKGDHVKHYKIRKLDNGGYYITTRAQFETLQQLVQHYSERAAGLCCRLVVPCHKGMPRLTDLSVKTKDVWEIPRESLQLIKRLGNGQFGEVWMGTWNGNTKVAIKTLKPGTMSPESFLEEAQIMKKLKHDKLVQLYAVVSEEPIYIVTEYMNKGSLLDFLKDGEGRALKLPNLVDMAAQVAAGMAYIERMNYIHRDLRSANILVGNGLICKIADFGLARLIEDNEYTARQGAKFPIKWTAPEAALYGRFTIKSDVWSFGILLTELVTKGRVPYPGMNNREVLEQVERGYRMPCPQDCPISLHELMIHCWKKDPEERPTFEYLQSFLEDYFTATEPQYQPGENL
Mitogen-activated protein kinase 3 (Homo sapiens), sequence (P27361 whole entry): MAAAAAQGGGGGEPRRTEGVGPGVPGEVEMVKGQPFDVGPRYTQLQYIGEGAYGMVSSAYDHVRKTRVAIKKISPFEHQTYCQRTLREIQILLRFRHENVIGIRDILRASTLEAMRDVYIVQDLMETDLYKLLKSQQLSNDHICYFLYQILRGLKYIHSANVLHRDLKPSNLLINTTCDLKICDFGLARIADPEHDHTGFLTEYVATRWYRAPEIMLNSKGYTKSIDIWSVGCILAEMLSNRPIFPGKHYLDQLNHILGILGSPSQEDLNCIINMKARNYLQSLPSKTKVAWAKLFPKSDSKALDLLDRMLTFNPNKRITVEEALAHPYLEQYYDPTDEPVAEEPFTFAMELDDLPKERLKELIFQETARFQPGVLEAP
Serine/threonine-protein kinase PAK 2 (Homo sapiens), sequence (Q13177 whole entry, the tested form may be a part): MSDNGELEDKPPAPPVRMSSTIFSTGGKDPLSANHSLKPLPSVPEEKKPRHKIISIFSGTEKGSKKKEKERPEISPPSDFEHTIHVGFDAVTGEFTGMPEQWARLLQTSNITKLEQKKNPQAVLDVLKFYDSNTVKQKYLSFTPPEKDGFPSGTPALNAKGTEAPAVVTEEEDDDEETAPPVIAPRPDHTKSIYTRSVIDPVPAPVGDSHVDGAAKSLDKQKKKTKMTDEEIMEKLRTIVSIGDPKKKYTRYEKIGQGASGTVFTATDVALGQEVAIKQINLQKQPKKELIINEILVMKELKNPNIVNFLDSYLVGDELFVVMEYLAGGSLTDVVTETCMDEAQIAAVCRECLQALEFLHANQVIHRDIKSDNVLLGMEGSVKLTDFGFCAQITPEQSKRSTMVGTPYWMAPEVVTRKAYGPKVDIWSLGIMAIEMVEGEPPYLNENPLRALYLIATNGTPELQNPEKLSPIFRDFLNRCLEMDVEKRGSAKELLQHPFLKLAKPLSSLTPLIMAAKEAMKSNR
Proto-oncogene tyrosine-protein kinase Src (Homo sapiens), sequence (P12931 2-536 limits assumed): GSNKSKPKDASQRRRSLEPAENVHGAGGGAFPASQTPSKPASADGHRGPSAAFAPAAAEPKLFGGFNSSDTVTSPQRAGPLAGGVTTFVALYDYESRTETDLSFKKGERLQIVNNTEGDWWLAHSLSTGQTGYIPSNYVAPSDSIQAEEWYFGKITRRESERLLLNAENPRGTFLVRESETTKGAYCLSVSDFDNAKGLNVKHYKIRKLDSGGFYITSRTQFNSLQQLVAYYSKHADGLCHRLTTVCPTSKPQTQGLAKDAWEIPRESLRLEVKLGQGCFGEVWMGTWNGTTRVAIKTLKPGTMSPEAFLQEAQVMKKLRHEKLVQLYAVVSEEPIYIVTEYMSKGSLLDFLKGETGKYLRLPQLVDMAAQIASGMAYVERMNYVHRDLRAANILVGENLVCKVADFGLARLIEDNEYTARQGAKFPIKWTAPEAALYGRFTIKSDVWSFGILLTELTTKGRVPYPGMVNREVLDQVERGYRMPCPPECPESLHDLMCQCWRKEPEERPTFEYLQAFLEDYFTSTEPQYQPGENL

`Clc1ccc(C2(c3ccc(-c4ncnc5[nH]cnc45)cc3)CCNCC2)cc1` was tested, and the inhibition [1] was 11% and the inhibition [2] was 16%.

Compound `c1nc(N2CCOCC2)c2nc[nH]c2n1` has an inhibition [3] of 62.5% and an inhibition [4] of 78.5%.

In the case of `NCC1CN(c2ncnc3[nH]c4cnccc4c23)CCO1` (stereo not given), the inhibition [5] is reported as 29.5% and the inhibition [6] is reported as 80%.

For `C[C@H](CN(C)C)Oc1nc(Nc2cc3cccc(Cl)c3cn2)cnc1C#N`, the inhibition [7] was 3.5% and the inhibition [8] was 0%.

With `CNCc1ccc(-c2ncnc3[nH]cnc23)cc1` the inhibition [9] was 62%.

Work on `c1cnc2[nH]ccc2c1` yielded an inhibition [10] of 74%.
